In ChEMBL document CHEMBL3886529, “PDE10a inhibitors for the treatment of type II diabetes” (2016):

The compounds below were run against T1, cAMP and cAMP-inhibited cGMP 3',5'-cyclic phosphodiesterase 10A (Rattus norvegicus, UniProt Q9QYJ6) (assay: In Vitro Assay rPDE10: Rat recombinant PDE10a (rPDE10a) was expressed in Sf9 cells using a recombinant rPDE10a baculovirus construct. Cells were harvested after 48 h of infection and the rPDE10a protein was purified by metal chelate chromatography on Ni-sepharose 6FF. Tested compounds were dissolved and diluted in 100% DMSO to a concentration 100 fold of the final concentration in the assay. Compound dilutions (0.4 uL) were added in 384 well plates to 20 uL of incubation buffer (50 mM Tris pH 7.8, 8.3 mM MgCl2, 1.7 mM EGTA). 10 uL of rPDE10a enzyme in incubation buffer was added and the reaction was started by addition of 10 uL substrate to a final concentration of 60 nM cAMP and 0.008 uCi 3H-cAMP. The reaction was incubated for 60 min at rt. After incubation, the reaction was stopped with 20 uL of 17.8 mg/mL PDE SPA beads. After sedimentation of the beads during 30 min the radioactivity was measured in a Perkin Elmer Topcount scintillation counter and results were expressed as cpm. For blank values the enz).
T1 sequence (Q9QYJ6 whole entry): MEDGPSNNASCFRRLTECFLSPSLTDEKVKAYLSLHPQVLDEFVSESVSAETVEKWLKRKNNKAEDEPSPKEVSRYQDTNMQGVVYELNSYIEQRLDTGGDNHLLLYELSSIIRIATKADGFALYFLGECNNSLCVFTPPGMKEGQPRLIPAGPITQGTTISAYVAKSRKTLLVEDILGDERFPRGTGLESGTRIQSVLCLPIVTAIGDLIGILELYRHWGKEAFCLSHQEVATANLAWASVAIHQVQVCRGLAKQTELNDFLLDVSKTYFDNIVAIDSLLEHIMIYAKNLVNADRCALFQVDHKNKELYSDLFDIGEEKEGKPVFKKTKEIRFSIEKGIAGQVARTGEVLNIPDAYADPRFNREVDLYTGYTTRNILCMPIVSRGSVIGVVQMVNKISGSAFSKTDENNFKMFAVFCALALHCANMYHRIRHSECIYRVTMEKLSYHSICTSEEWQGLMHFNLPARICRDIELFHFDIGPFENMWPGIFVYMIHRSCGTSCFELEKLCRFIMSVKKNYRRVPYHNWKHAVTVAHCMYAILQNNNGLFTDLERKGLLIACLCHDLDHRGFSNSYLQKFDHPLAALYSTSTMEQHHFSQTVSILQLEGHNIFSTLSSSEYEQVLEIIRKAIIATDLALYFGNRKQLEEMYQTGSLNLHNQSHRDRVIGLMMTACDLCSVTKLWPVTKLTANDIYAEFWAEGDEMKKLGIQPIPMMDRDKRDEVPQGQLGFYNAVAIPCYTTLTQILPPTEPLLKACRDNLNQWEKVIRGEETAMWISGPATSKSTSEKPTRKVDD

| Structure (SMILES) | IC50 [µM] |
| --- | --- |
| c1ccc2nc(OCc3cn4c(C5CCNCC5)cnc(N5CCOCC5)c4n3)ccc2c1 | 0.562 |
| O=C1Nc2ccc(-c3cnc(N4CCOCC4)c4nc(CCc5ccc6ccccc6n5)cn34)cc2C1(F)F | 0.019 |
| O=C(O)c1cc(/C=C/c2cn3ccnc(N4CCOCC4)c3n2)nc2ccccc12 | 0.009 |
